In the experiment the target is T1, human GLP-1R receptor (Homo sapiens, UniProt P43220).
T1 construct: expressed in transfected cells
Briefly: GLP-1R low expression cell assay (cAMP TR-FRET, CHO-K1_hGLP-1Rlow_clone10 cells). Particulars: for EC50: cAMP TR-FRET, 30 min at 25° C.; for Emax: maximum activation relative to control GLP-1 peptide agonist. The format is cell-based. The protocol:
Stable cell lines expressing high and low GLP-1R surface expression were generated in CHO-K1 cells transfected (Fugene 6) with a puromycin selectable DNA plasmid encoding human GLP-1R receptor (accession number: NM_002062.5) under control of an EF1A promoter. Transfected cells were seeded into 24-well plates (9,000 cells/well) containing complete medium and incubated in a humidified incubator at 37° C. with 5% carbon dioxide. After overnight incubation, medium was replaced with complete medium supplemented with puromycin (6 μg/mL) and refreshed every 2-3 days to select for stably transfected cells. Individual pools of selected cells were expanded prior to analysis for responsiveness to GLP-1 control peptide using a TR-FRET assay to detect cAMP (LANCE Ultra CAMP Assay, Perkin Elmer). Briefly, cells were collected in Versene solution, plated in 384-well plates (1,000 cells/well) and combined with serially diluted GLP-IR control peptide (10 nL) using an acoustic dispenser (ECHO). Plates were incubated for 30 minutes at 25° C. prior to the addition of EU-CAMP tracer (5 μL) and Ulight-anti-CAMP (5 μL) reagents to each well, followed by 15 minutes incubation at 25° C. TR-FRET signal was detected using an En Vision Multimode Plate Reader (excitation=320 nm; emission=615 and 655 nm). Dose-response curves were used to generate EC50 values as a measure of responsiveness to the GLP-IR control peptide. Selected cell lines were monitored for responsiveness over multiple passages to ensure stability. […] Briefly, GLP-IR expression was analyzed by flow cytometry using a fluorescein-labeled Exendin-4 peptide fluorescent probe (FLEX). Cells were harvested in Versene solution and washed 3-times with PBS+0.5% BSA before incubation with FLEX reagent (10 μM) for 2 hours at room temperature. After incubation, cells were washed 3-times in PBS+0.5% BSA before final resuspension in PBS prior to analysis by flow cytometry to measure FLEX mean fluorescence intensity (MFI) as a measure of GLP-IR expression on the cell surface.
For compound testing in the CHO-K1_hGLP-IRlow_clone10 cell line, cells were seeded in 384-well plates (1,000 cells/well). Test compounds were serially diluted in DMSO (10-point, 3-fold dilution), added to wells using an ECHO dispenser (10 nL/well) and plates were centrifuged for 1 min and agitated for 2 min at room temperature prior to 30-minute incubation at 25° C. After incubation, Eu-CAMP (5 μL) and Ulight-anti-cAMP (5 μL) reagents were added to each well, followed by centrifugation for 1 minute, agitation for 2 minutes at room temperature, and final incubation of the plates at 25° C. for 15 minutes. Plates were read using an EnVision microplate reader (excitation=320 nm; emission=615 and 655 nm). Dose-response curves were generated from duplicate wells based on percent activation calculated relative to a control GLP-1 peptide agonist that was run in parallel. EC50 values were determined by fitting percent activation as a function of compound concentration using the Hill equation (XLfit).
The compounds tested were compound samples prepared according to the General Procedures described in the Examples section.
(In general: In TR-FRET formats the signal depends on donor and acceptor labels being close together.)

T1 sequence (P43220 24-463): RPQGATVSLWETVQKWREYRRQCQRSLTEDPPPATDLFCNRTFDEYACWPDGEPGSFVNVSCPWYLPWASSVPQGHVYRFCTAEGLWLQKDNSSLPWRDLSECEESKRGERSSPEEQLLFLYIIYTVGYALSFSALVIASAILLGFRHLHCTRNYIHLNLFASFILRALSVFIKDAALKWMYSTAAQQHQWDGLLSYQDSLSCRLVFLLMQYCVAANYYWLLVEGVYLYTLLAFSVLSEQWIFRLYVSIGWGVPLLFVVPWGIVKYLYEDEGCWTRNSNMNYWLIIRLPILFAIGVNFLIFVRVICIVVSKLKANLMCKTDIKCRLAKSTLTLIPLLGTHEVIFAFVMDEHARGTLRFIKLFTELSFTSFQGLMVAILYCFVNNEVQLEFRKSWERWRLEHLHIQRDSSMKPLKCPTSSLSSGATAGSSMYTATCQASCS

Take `C[C@]1(c2ccc(Cl)cn2)Oc2cccc(C3CCN(Cc4nc5c6c(c(C(=O)O)cc5n4C[C@@H]4CCO4)OCCO6)CC3)c2O1` [Compound 93, 2-((4-((S)-2-(5-Chloropyridin-2-yl)-2-methylbenzo[d][1,3]dioxol-4-yl)piperidin-1-yl)methyl)-3-(((S)-oxetan-2-yl)methyl)-7,8-dihydro-3H-[1,4]dioxino[2′,3′:3,4]benzo[1,2-d]imidazole-5-carboxylic acid]: the EC50 was below 10 nM and the Emax was above 85%.

In the case of `COc1cc(C(=O)O)cc2c1nc([C@@H](C)N1CCC(c3cccc(OCc4ccc(C#N)cc4F)n3)CC1)n2C[C@@H]1CCO1` [Compound 94, 2-((R)-1-(4-(6-((4-Cyano-2-fluorobenzyl)oxy)pyridin-2-yl)piperidin-1-yl)ethyl)-4-methoxy-1-(((S)-oxetan-2-yl)methyl)-1H-benzo[d]imidazole-6-carboxylic acid], the EC50 was above 1000 nM and the Emax was above 85%.

The molecule `COc1cc(C(=O)O)cc2c1nc([C@H](C)N1CCC(c3cccc(OCc4ccc(C#N)cc4F)n3)CC1)n2C[C@@H]1CCO1` [Compound 95, 2-((S)-1-(4-(6-((4-Cyano-2-fluorobenzyl)oxy)pyridin-2-yl)piperidin-1-yl)ethyl)-4-methoxy-1-(((S)-oxetan-2-yl)methyl)-1H-benzo[d]imidazole-6-carboxylic acid] yielded an EC50 below 10 nM and an Emax above 85%.

In turn, `COc1cc(C(=O)O)cc2c1nc([C@H](C)N1CCC(c3cccc4c3O[C@@](C)(c3ccc(Cl)cn3)O4)CC1)n2C` [Compound 96, 2-((S)-1-(4-((S)-2-(5-Chloropyridin-2-yl)-2-methylbenzo[d][1,3]dioxol-4-yl)piperidin-1-yl)ethyl)-4-methoxy-1-methyl-1H-benzo[d]imidazole-6-carboxylic acid] returned an EC50 of 10 to 100 nM and an Emax above 85%.

Regarding `COc1cc(C(=O)O)cc2c1nc([C@@H](C)N1CCC(c3cccc4c3O[C@@](C)(c3ccc(Cl)cn3)O4)CC1)n2C` [Compound 97, 2-((R)-1-(4-((S)-2-(5-chloropyridin-2-yl)-2-methylbenzo[d][1,3]dioxol-4-yl)piperidin-1-yl)ethyl)-4-methoxy-1-methyl-1H-benzo[d]imidazole-6-carboxylic acid], the EC50 was above 1000 nM and the Emax is above 85%.

Molecule `[2H]C([2H])([2H])Oc1cc(C(=O)O)cc2c1nc(CN1CCC(c3cccc4c3O[C@@](C)(c3ccc(Cl)cn3)O4)CC1)n2C[C@@H]1CCO1` [Compound 98, 2-((4-((S)-2-(5-chloropyridin-2-yl)-2-methylbenzo[d][1,3]dioxol-4-yl)piperidin-1-yl)methyl)-4-(methoxy-d3)-1-(((S)-oxetan-2-yl)methyl)-1H-benzo[d]imidazole-6-carboxylic acid] yielded an EC50 below 10 nM and an Emax above 85%.

`C[C@]1(c2ccc(Cl)cn2)Oc2cccc(C3CCN(Cc4nc5cc(C(=O)O)c6c(c5n4C[C@@H]4CCO4)OCCO6)CC3)c2O1` [Compound 99, 2-((4-((S)-2-(5-Chloropyridin-2-yl)-2-methylbenzo[d][1,3]dioxol-4-yl)piperidin-1-yl)methyl)-1-(((S)-oxetan-2-yl)methyl)-7,8-dihydro-1H-[1,4]dioxino[2′,3′:3,4]benzo[1,2-d]imidazole-5-carboxylic acid]: the half-maximal effective concentration (EC50) is above 1000 nM and the Emax is above 85%.

With `N#Cc1ccc(COc2cccc(C3CCN(Cc4nc5c6c(c(C(=O)O)cc5n4C[C@@H]4CCO4)OCCO6)CC3)n2)c(F)c1` [Compound 100, (S)-2-((4-(6-((4-Cyano-2-fluorobenzyl)oxy)pyridin-2-yl)piperidin-1-yl)methyl)-3-(oxetan-2-ylmethyl)-7,8-dihydro-3H-[1,4]dioxino[2′,3′:3,4]benzo[1,2-d]imidazole-5-carboxylic acid], the EC50 was below 10 nM and the Emax is above 85%.

In turn, `N#Cc1ccc(COc2cccc(C3CCN(Cc4nc5cc(C(=O)O)c6c(c5n4C[C@@H]4CCO4)OCCO6)CC3)n2)c(F)c1` [Compound 101, (S)-2-((4-(6-((4-Cyano-2-fluorobenzyl)oxy)pyridin-2-yl)piperidin-1-yl)methyl)-1-(oxetan-2-ylmethyl)-7,8-dihydro-1H-[1,4]dioxino[2′,3′:3,4]benzo[1,2-d]imidazole-5-carboxylic acid] displayed an EC50 of 10 to 100 nM and an Emax above 85%.

`COc1cc(C(=O)O)cc2c1nc([C@H](C)N1CCC(c3cccc(OCc4ccc(C#N)cc4F)n3)CC1)n2C` [Compound 102, (S)-2-(1-(4-(6-((4-Cyano-2-fluorobenzyl)oxy)pyridin-2-yl)piperidin-1-yl)ethyl)-4-methoxy-1-methyl-1H-benzo[d]imidazole-6-carboxylic acid] had an EC50 of 10 to 100 nM and an Emax above 85%.

For `COc1cc(C(=O)O)cc2c1nc([C@@H](C)N1CCC(c3cccc(OCc4ccc(C#N)cc4F)n3)CC1)n2C` [Compound 103, (R)-2-(1-(4-(6-((4-Cyano-2-fluorobenzyl)oxy)pyridin-2-yl)piperidin-1-yl)ethyl)-4-methoxy-1-methyl-1H-benzo[d]imidazole-6-carboxylic acid], the EC50 was above 1000 nM and the maximum response (Emax) is 50 to 85%.

In turn, `N#Cc1ccc(COc2cccc(C3CCN(Cc4nc5ccc(C(=O)O)c6c5n4CCO6)CC3)n2)c(F)c1` [Compound 104, 2-((4-(6-((4-Cyano-2-fluorobenzyl)oxy)pyridin-2-yl)piperidin-1-yl)methyl)-3,4-dihydro-5-oxa-1,2a-diazaacenaphthylene-6-carboxylic acid] registered an EC50 of 100 to 1000 nM and an Emax above 85%.

`N#Cc1ccc(COc2cccc(C3CCN(Cc4nc5c(OC(F)F)cc(C(=O)O)cc5n4CC4(C#N)CC4)CC3)n2)c(F)c1` [Compound 105, 2-((4-(6-((4-Cyano-2-fluorobenzyl)oxy)pyridin-2-yl)piperidin-1-yl)methyl)-1-((1-cyanocyclopropyl)methyl)-4-(difluoromethoxy)-1H-benzo[d]imidazole-6-carboxylic acid] returned an EC50 below 10 nM and an Emax above 85%.

`COCCn1c(CN2CCC(c3cccc(OCc4ccc(C#N)cc4F)n3)CC2)nc2c(OC(F)F)cc(C(=O)O)cc21` [Compound 106, 2-((4-(6-((4-Cyano-2-fluorobenzyl)oxy)pyridin-2-yl)piperidin-1-yl)methyl)-4-(difluoromethoxy)-1-(2-methoxyethyl)-1H-benzo[d]imidazole-6-carboxylic acid] displayed an EC50 below 10 nM and an Emax above 85%.

Consider `COCCc1nc(C(=O)O)cc2c1nc(CN1CCC(c3cccc(OCc4ccc(C#N)cc4F)n3)CC1)n2C` [Compound 107, 2-((4-(6-((4-cyano-2-fluorobenzyl)oxy)pyridin-2-yl)piperidin-1-yl)methyl)-4-(2-methoxyethyl)-1-methyl-1H-imidazo[4,5-c]pyridine-6-carboxylic acid], for which the EC50 was above 1000 nM and the Emax fell in the range of 50 to 85%.

`[2H]C([2H])([2H])Oc1cc(C(=O)O)cc2c1nc(CN1CCC(c3cccc(OCc4ccc(C#N)cc4F)n3)CC1)n2C[C@@H]1CCO1` [Compound 108, (S)-2-((4-(6-((4-Cyano-2-fluorobenzyl)oxy)pyridin-2-yl)piperidin-1-yl)methyl)-4-(methoxy-d3)-1-(oxetan-2-ylmethyl)-1H-benzo[d]imidazole-6-carboxylic acid]: the EC50 was below 10 nM and the Emax is above 85%.

Turning to `CC(C)(C)Oc1cc(C(=O)O)cc2c1nc(CN1CCC(c3cccc(OCc4ccc(C#N)cc4F)n3)CC1)n2C[C@@H]1CCO1` [Compound 109, (S)-4-(tert-Butoxy)-2-((4-(6-((4-cyano-2-fluorobenzyl)oxy)pyridin-2-yl)piperidin-1-yl)methyl)-1-(oxetan-2-ylmethyl)-1H-benzo[d]imidazole-6-carboxylic acid], the EC50 was below 10 nM and the Emax was above 85%.

As a reminder, the EC50 is the concentration giving half of the maximal effect. The Emax is the size of the effect at its maximum, as opposed to the concentration needed.

Values taken from patent publication US20240368120A1 (Terns Pharmaceuticals, Inc., priority 2023, published 2024).
